Data published in US9994673B2, “Bisphenol polyether oligomers, methods of manufacture, and polycarbonates made therefrom” (SABIC GLOBAL TECHNOLOGIES B.V, priority 2013, dated 2018).
Entries after “also recorded” stand apart in the source; their conditions may differ.

Tests used:
[1] = target: T1, recombinant human estradiol receptor (rhER) alpha (Homo sapiens, UniProt P03372); test: Competitive estradiol binding assay, displacement of [3H]estradiol, rhER alpha; conditions: up to highest concentration 2.5×E-4 M
T1 sequence (P03372 1-595): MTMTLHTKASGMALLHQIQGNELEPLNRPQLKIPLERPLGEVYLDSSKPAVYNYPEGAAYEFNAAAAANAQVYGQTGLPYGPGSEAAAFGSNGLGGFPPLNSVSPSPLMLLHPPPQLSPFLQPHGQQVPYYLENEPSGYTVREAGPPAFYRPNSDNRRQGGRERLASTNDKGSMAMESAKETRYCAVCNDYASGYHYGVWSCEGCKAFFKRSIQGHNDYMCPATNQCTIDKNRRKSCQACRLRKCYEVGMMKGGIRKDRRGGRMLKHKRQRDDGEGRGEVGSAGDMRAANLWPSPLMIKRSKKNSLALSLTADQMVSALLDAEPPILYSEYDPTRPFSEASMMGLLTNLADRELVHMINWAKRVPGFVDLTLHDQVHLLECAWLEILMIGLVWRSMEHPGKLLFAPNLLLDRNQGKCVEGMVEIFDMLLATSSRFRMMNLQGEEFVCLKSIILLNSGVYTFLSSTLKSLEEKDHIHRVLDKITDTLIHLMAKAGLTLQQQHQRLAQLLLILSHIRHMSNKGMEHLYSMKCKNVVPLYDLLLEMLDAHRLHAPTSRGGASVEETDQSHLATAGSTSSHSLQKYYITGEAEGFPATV

[2] = target: recombinant human estradiol receptor (rhER) beta 1 (Homo sapiens, UniProt Q92731); test: Competitive estradiol binding assay, displacement of [3H]estradiol, rhER beta 1; conditions: up to highest concentration 2.5×E-4 M

CC(C)(c1ccc(O)cc1)c1ccc(O)cc1 [Control B, Bisphenol A]
Binding to rhER alpha (in words) ([1]; listed as BPA): bind to both receptors; also recorded: very low level of binding | Binding to rhER beta (in words) ([2]; listed as BPA): bind to both receptors; also recorded: very low level of binding

CC(C)(c1ccccc1)c1ccc(O)cc1 [Control C, p-Cumyl Phenol]
Binding to rhER alpha (in words) [1]: very low level of binding | Binding to rhER beta (in words) [2]: very low level of binding

CC(C)(c1ccc(O)cc1)c1ccc(OCc2ccc(COc3ccc(C(C)(C)c4ccc(O)cc4)cc3)cc2)cc1 [BPA-X-1, 4,4′-[1,4-Phenylenebis(methyleneoxy-4,1-phenylene(1-methylethylidene))]bisphenol]
Binding to rhER alpha (in words) [1]: no detectable binding | Binding to rhER beta (in words) [2]: no detectable binding
